Source: patent US20230114808A1, “THERAPEUTIC RNA FOR PROSTATE CANCER” (BioNTech SE, priority 2019, published 2023)

Columns and labels:
[1] = Respiratory safety (plethysmography) within GLP repeated dose toxicity studies (LPT No. 28864, 30283); type: in vivo, mice; settings: positive control, 30 mg/kg b.w.
Experimental: Respiratory safety was included in repeated dose toxicity studies in mice using RNA DPs coding for TAAs in compliance with GLP (LPT No. 28864 and 30283, for study design see below). For example, plethysmography was tested in the study with RNA(LIP) (LPT No. 30283) with four animals/sex/group treated either with control buffer, a low and a high dose (5 and 50 μg of RNA formulated with 9 μg and 90 μg of liposomes, respectively). A positive control of animals treated with 30 mg Carbamyl-β-methylcholine chloride (bethanecol)/kg b.w. was also included. Plethysmography was performed one day after the 4th to 7th dosing. The tests included the evaluation of respiratory rate, tidal volume, minute volume, inspiratory time, expiratory time, peak expiratory and inspiratory flow, expiratory time, and airway resistance index.

[2] = tested on: KLK2, PSA (KLK3), PAP (ACPP), HOXB13, and NKX3-1; experiment: IFN-γ ELISPOT of splenocytes restimulated with mRNA-electroporated BMDCs after RNA(LIP) vaccination; type: in vivo, A2/DR1 mice; settings: 30 μg of each antigen RNA complexed with liposomes, IV, four to five vaccinations, R&D-quality RNA
Experimental: FIG. 18: Vaccination with W_pro1 antigen RNAs leads to antigen-specific T-cell responses. Splenocytes of intravenously vaccinated A2/DR1 mice (n=4-5/group) were restimulated for 20 h with BMDCs electroporated with the corresponding mRNAs as indicated. BMDCs electroporated with irrelevant mRNA were used as control (open symbols, grey bars). Effector function was measured using an IFN-γ ELISPOT assay. Symbols indicate mean values of triplicate wells from individual animals. Bars indicate median of all animals per group.
To obtain more information about the in vivo induction of antigen-specific T cells by the prostate specific antigens KLK2, PSA (KLK3), PAP (ACPP), HOXB13, and NKX3-1, RNA(LIP) products were prepared using RNA of R&D quality and liposomes of GMP-like quality. The RNA(LIP) products were injected intravenously into transgenic mice manipulated to express the human leukocyte antigens HLA-A*0201 and -DRB1*01. Using these mice the priming and expansion of T cells specific for HLA-restricted epitopes can be examined in vivo. A2/DR1 mice were vaccinated four to five times by injection of 30 μg of each antigen RNA complexed with liposomes, followed by isolation of spleen cells (5 days after last vaccination). The priming efficiency of the test items was evaluated by IFN-γ ELISPOT assay after restimulation with bone marrow derived dendritic cells (BMDC) electroporated with the respective mRNA or unrelated control mRNA.

[3] = tested on: KLK2, KLK3 (PSA), ACPP (PAP), NKX3-1 or HOXB13; experiment: IFN-γ ELISPOT of splenocytes restimulated with peptide pools (Example 3); type: in vivo, A2/DR1 mice; settings: 30 μg RNA(Lip) days 1, 8, 15, 22; splenocytes five days after final injection; unpaired t test
Description: IFN-γ ELISPOT analysis of T-cell effectors from the spleen of mice immunized with lipoplex-formulated RNA coding for KLK2(aa 1-261), KLK3(aa 1-261), ACPP(aa 1-418), HOXB13(aa 1-284) or NKX3-1(aa 1-234). Splenocytes obtained five days after the final immunization were re-stimulated with either a peptide pool spanning the respective human protein, P2/P16/P17 peptides or with an irrelevant control peptide CMV pp65(495-504). Dots represent individual animals; horizontal bars indicate the mean±SD of the three animals.
At day 1, day 8, day 15, and day 22 A2/DR1 mice were immunized with 200 μL of a 0.15 mg/mL RNA(Lip) solution which corresponds to 30 μg RNA(Lip).
Splenocytes were obtained from the immunized A2/DR1 mice five days after the final of four RNA(Lip) injections, and in vivo induction ofantigen-specificTcells was determined by ELISPOT analysis. To test for the immunogenicity, isolated splenocytes were re-stimulated with a peptide pool (15 mers, overlapping by 11 amino acids) spanning the respective human proteins, KLK2, KLK3 (PSA), ACPP (PAP), NKX3-1 or HOXB13. […] On all ELISPOT plates, the negative control medium alone induced only a minimal spot count regardless of the animal the splenocytes had been derived from.

[4] = tested on: KLK2, PSA (KLK3), PAP (ACPP), HOXB13, and NKX3-1; experiment: IFN-γ ELISPOT of splenocytes restimulated with mRNA-electroporated BMDCs after RNA(LIP) vaccination; type: in vivo, A2/DR1 mice; settings: RNAs manufactured under GMP-conditions; study will be performed

| Molecule | pulmonary parameters (plethysmography) [1] | antigen-specific T-cell responses in vivo [2] | IFN-γ+ spot count vs restimulation with control peptide CMV pp65 [3] | immunogenicity [4] |
| --- | --- | --- | --- | --- |
| CC(C[N+](C)(C)C)OC(N)=O.[Cl-] (stereo not drawn) [Carbamyl-β-methylcholine chloride] | expected alterations |  |  |  |
| beta-S-ARCA(D1)-hAg-Kozak-ACPP-GS-P2P16-GS-MITD-FI-A30L70 [RBL040.1] |  | induced antigen-specific T-cell responses | statistically higher | comparable to the results from earlier studies |
| beta-S-ARCA(D1)-hAg-Kozak-KLK2-GS-P2P16-GS-MITD-FI-A30L70 [RBL038.1] |  | induced antigen-specific T-cell responses | statistically higher | comparable to the results from earlier studies |
| beta-S-ARCA(D1)-hAg-Kozak-KLK3-GS-P2P16-GS-MITD-FI-A30L70 [RBL039.1] |  | induced antigen-specific T-cell responses |  | comparable to the results from earlier studies |
| beta-S-ARCA(D1)-hAg-Kozak-sec-GS-HOXB13-GS-P2P16-GS-MITD-FI-A30L70 [RBL041.1] |  | induced antigen-specific T-cell responses | statistically higher | comparable to the results from earlier studies |
| beta-S-ARCA(D1)-hAg-Kozak-sec-GS-NKX31-GS-P2P16-GS-MITD-FI-A30L70 [RBL045.1] |  | induced antigen-specific T-cell responses |  | comparable to the results from earlier studies |
